Results published in ChEMBL document CHEMBL1817647, “1-Heteroaryl-6-(3,4-dichlorophenyl)-3-azabicyclo[4.1.0]heptane: further insights into a class of triple re-uptake inhibitors” (Bioorg Med Chem, 2011).

How the values were obtained:
[1] = target: Sodium-dependent dopamine transporter (Homo sapiens, UniProt Q01959); assay: Displacement of [3H]WIN-35428 from human recombinant DAT by scintillation proximity assay
[2] = target: Sodium-dependent serotonin transporter (Homo sapiens, UniProt P31645); assay: Displacement of [3H]citalopram from human recombinant SERT scintillation proximity assay
[3] = target: Sodium-dependent noradrenaline transporter (Homo sapiens, UniProt P23975); assay: Displacement of [3H]nisoxetine from human recombinant NET by scintillation proximity assay
Liver microsomes [4] = assay: Intrinsic clearance in human liver microsomes assessed per mg of protein at 0.5 uM for 30 mins by HPLC-MS/MS analysis in presence of NADPH; assay type: ADME, Microsome; conditions: 0.5 h
[5] = Volume of distribution in rat; assay type: ADME, organism-based; conditions: in vivo
[6] = Blood clearance in rat; assay type: ADME, organism-based
[7] = Oral absorption in rat; assay type: ADME, organism-based; conditions: in vivo
[8] = Oral bioavailability in rat; assay type: ADME, organism-based; conditions: in vivo
[9] = Ratio of drug level in brain to blood in rat after 1 hr; assay type: ADME, tissue-based; conditions: read-out: BBR
[10] = Half life in rat; assay type: ADME, organism-based; conditions: in vivo
Liver microsomes [11] = assay: Intrinsic clearance in rat liver microsomes assessed per mg of protein at 0.5 uM for 30 mins by HPLC-MS/MS analysis in presence of NADPH; assay type: ADME, Microsome; conditions: 0.5 h
Cytochrome P450 2D6 = Cytochrome P450 2D6 (Homo sapiens, UniProt P10635); assay: Inhibition of human CYP2D6 incubated for 10 mins before substrate addition by fluorescence assay
Cytochrome P450 3A4 = Cytochrome P450 3A4 (Homo sapiens, UniProt P08684); assay: Inhibition of human CYP3A4 incubated for 10 mins before substrate addition by fluorescence assay
Cytochrome P450 2C19 = Cytochrome P450 2C19 (Homo sapiens, UniProt P33261); assay: Inhibition of human CYP2C19 incubated for 10 mins before substrate addition by fluorescence assay
Cytochrome P450 2C9 = Cytochrome P450 2C9 (Homo sapiens, UniProt P11712); assay: Inhibition of human CYP2C9 incubated for 10 mins before substrate addition by fluorescence assay
Cytochrome P450 1A2 = target: T1, Cytochrome P450 1A2 (Homo sapiens, UniProt P05177); assay: Inhibition of human CYP1A2 incubated for 10 mins before substrate addition by fluorescence assay
T1 sequence (P05177 whole entry): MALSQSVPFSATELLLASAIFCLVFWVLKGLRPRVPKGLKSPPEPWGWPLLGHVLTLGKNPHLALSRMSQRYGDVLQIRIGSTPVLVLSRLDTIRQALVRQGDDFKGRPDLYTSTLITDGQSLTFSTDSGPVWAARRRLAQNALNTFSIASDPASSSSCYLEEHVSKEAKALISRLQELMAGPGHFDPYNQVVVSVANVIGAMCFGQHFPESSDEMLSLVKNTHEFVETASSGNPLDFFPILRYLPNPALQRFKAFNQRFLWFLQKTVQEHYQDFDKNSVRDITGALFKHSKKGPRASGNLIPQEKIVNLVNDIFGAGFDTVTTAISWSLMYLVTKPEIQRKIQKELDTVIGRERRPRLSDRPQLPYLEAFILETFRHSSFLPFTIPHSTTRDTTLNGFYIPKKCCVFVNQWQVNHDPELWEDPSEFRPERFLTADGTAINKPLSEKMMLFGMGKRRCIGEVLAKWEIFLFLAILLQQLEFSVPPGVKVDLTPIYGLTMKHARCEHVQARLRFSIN

[12] = Hepatic extraction ratio in rat; conditions: in vivo

Sequence of Cytochrome P450 2D6 (P10635 whole entry): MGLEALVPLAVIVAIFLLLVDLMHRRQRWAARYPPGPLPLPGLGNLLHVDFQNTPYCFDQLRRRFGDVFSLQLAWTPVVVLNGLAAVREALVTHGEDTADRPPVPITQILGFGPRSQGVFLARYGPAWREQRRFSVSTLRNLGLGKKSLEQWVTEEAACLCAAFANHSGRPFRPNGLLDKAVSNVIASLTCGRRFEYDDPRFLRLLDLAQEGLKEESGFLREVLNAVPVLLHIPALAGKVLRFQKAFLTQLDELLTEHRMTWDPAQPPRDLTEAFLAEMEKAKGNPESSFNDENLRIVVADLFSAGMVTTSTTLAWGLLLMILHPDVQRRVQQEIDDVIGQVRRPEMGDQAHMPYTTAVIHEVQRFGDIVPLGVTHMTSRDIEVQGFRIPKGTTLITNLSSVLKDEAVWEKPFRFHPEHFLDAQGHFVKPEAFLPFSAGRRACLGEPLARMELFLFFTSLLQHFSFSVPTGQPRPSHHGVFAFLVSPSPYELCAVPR
Sequence of Sodium-dependent dopamine transporter (Q01959 whole entry): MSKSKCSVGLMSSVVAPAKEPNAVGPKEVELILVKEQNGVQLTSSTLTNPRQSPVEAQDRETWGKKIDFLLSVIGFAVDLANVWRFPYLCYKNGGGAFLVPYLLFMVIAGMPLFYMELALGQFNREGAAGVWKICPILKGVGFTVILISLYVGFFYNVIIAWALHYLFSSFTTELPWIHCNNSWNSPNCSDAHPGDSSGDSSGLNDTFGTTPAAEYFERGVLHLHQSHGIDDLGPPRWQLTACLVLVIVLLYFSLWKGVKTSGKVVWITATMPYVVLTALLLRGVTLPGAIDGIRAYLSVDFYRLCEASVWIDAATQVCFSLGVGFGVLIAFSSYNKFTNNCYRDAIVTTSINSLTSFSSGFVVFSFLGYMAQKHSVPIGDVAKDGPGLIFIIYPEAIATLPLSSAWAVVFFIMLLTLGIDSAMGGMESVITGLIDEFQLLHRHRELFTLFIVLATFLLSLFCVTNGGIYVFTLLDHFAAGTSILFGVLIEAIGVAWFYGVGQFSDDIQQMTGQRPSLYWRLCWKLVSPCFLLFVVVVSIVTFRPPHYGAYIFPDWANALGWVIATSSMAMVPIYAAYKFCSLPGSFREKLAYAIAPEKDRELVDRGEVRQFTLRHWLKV
Sequence of Sodium-dependent serotonin transporter (P31645 whole entry): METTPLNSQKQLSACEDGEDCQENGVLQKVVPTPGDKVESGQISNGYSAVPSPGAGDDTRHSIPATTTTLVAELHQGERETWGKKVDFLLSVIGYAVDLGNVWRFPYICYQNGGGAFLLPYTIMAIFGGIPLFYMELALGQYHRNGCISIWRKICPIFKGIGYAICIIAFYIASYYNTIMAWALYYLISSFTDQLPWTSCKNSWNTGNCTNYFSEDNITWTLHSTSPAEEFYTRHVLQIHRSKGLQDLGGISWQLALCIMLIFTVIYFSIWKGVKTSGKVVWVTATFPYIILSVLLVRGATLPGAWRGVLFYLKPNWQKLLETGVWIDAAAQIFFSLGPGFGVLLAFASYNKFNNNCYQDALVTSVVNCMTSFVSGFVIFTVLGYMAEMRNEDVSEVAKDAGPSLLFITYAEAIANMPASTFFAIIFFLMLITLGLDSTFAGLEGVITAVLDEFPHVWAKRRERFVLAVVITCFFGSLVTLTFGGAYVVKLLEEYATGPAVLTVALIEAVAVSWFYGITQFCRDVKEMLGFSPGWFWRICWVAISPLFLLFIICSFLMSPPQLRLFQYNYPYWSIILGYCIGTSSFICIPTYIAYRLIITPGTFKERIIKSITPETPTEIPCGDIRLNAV
Sequence of Cytochrome P450 3A4 (P08684 whole entry): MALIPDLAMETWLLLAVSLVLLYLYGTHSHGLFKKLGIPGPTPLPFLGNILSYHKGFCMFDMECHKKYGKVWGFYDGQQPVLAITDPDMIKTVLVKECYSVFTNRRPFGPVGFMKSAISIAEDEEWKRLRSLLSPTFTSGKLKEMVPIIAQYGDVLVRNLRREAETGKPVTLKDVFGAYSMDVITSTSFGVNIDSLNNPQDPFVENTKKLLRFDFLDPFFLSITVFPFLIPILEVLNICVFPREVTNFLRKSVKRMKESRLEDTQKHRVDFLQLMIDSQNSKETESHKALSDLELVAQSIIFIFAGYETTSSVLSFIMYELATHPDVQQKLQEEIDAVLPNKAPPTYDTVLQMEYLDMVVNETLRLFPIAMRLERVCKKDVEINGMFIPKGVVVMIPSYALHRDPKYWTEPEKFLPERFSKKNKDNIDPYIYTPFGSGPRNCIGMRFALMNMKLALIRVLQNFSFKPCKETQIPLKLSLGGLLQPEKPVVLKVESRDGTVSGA
Sequence of Cytochrome P450 2C19 (P33261 whole entry): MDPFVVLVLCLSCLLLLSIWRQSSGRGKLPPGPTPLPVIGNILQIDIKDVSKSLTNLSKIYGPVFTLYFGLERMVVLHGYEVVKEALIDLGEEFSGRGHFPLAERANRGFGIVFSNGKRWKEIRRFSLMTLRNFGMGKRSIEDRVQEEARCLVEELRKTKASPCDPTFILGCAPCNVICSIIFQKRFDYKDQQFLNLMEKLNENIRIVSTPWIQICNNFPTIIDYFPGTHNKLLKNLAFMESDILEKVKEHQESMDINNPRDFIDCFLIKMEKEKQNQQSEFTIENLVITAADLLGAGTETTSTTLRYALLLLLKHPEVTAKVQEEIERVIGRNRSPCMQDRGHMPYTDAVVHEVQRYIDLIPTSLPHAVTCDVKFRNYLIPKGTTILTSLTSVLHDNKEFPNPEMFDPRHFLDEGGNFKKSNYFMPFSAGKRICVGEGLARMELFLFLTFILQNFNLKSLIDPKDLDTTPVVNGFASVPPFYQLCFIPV
Sequence of Sodium-dependent noradrenaline transporter (P23975 whole entry): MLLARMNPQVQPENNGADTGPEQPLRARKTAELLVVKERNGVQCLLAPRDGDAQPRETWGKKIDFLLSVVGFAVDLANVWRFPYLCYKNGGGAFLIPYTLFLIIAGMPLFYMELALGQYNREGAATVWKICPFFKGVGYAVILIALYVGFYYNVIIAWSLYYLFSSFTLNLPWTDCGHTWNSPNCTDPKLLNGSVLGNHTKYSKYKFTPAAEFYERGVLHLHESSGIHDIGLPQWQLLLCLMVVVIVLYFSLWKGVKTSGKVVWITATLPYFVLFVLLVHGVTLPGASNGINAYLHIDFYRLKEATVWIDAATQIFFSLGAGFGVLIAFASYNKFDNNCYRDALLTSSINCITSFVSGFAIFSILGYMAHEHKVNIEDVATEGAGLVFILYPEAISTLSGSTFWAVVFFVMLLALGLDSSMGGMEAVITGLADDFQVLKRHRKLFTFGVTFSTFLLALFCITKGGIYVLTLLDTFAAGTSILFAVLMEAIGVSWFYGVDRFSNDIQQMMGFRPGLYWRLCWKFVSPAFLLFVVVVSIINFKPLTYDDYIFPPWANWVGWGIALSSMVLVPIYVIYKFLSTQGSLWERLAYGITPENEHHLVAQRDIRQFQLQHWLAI
Sequence of Cytochrome P450 2C9 (P11712 whole entry): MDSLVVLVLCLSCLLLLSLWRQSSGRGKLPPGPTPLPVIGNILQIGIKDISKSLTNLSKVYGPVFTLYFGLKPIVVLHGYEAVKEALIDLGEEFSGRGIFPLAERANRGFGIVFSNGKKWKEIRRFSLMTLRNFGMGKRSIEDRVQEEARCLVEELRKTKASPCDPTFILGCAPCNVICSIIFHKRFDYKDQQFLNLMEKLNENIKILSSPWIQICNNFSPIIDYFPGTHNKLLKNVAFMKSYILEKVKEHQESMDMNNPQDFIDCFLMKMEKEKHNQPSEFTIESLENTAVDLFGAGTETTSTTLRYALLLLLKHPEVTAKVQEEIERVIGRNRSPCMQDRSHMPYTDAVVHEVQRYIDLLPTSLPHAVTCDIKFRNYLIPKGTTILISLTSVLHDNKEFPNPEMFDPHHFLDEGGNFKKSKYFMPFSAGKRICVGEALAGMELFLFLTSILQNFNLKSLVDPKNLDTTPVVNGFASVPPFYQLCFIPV

SMILES | Ki [1] [nM] | Ki [2] [nM] | Ki [3] [nM] | further results
Clc1ccc([C@]23CCNCC2(Cn2ncc4ccccc42)C3)cc1Cl (stereo partly specified) | 15.8 | 0.251 | 50.1 | 
Cc1ccn(CC23CNCC[C@]2(c2ccc(Cl)c(Cl)c2)C3)c1 (stereo partly specified) | 31.6 | 0.501 | 39.8 | 
Clc1ccc([C@]23CCNCC2(Cn2ccc4ccccc42)C3)cc1Cl (stereo partly specified) | 20 | 1.26 | 63.1 | 
Clc1ccc([C@]23CCNCC2(Cn2cc4ccccc4n2)C3)cc1Cl (stereo partly specified) | 3.98 | 0.2 | 50.1 | 
Cc1cnc([C@@]23CNCC[C@]2(c2ccc(Cl)c(Cl)c2)C3)o1 (racemic) | 1 | 6.31 | 6.31 | 
Cc1csc([C@@]23CNCC[C@]2(c2ccc(Cl)c(Cl)c2)C3)n1 (racemic) | 0.158 | 0.501 | 0.398 | 
Cc1cc([C@@]23CNCC[C@]2(c2ccc(Cl)c(Cl)c2)C3)no1 (racemic) | 2 | 7.94 | 39.8 | 
Cc1noc([C@@]23CNCC[C@]2(c2ccc(Cl)c(Cl)c2)C3)n1 (racemic) | 0.794 | 7.94 | 31.6 | 
Cc1csc(C[C@@]23CNCC[C@]2(c2ccc(Cl)c(Cl)c2)C3)n1 (racemic) | 6.31 | 0.1 | 0.631 | 
Cc1coc(C[C@@]23CNCC[C@]2(c2ccc(Cl)c(Cl)c2)C3)n1 (racemic) | 63.1 | 2 | 31.6 | 
Cc1ncoc1C[C@@]12CNCC[C@]1(c1ccc(Cl)c(Cl)c1)C2 (racemic) | 12.6 | 3.16 | 25.1 | 
Cc1cnn(C[C@@]23CNCC[C@]2(c2ccc(Cl)c(Cl)c2)C3)c1 (racemic) | 126 | 0.794 | 79.4 | 
Cc1cc(C)n(C[C@@]23CNCC[C@]2(c2ccc(Cl)c(Cl)c2)C3)n1 (racemic) | 6.31 | 0.398 | 1.58 | 
FC(F)(F)c1ccnn1C[C@@]12CNCC[C@]1(c1ccc(Cl)c(Cl)c1)C2 (racemic) | 1.58 | 2 | 10 | 
FC(F)(F)c1ccn(C[C@@]23CNCC[C@]2(c2ccc(Cl)c(Cl)c2)C3)n1 (racemic) | 25.1 | 2 | 158 | 
N#Cc1ccnn1C[C@@]12CNCC[C@]1(c1ccc(Cl)c(Cl)c1)C2 (racemic) | 20 | 5.01 | 31.6 | 
N#Cc1ccn(C[C@@]23CNCC[C@]2(c2ccc(Cl)c(Cl)c2)C3)n1 (racemic) | 25.1 | 1 | 25.1 | 
Cc1cc(C(F)(F)F)nn1C[C@@]12CNCC[C@]1(c1ccc(Cl)c(Cl)c1)C2 (racemic) | 2 | 1 | 25.1 | 
Cc1cc(C(F)(F)F)n(C[C@@]23CNCC[C@]2(c2ccc(Cl)c(Cl)c2)C3)n1 (racemic) | 1.26 | 0.794 | 10 | 
CC(C)(C)c1ccn(C[C@@]23CNCC[C@]2(c2ccc(Cl)c(Cl)c2)C3)n1 (racemic) | 6.31 | 0.251 | 50.1 | 

SMILES | Ki [1] [nM] | Ki [2] [nM] | Ki [3] [nM] | further results
Clc1ccc([C@]23CCNC[C@@]2(Cn2cccc2)C3)cc1Cl (racemic) | 15.8 | 0.398 | 10 | 
N#Cc1cccn1C[C@@]12CNCC[C@]1(c1ccc(Cl)c(Cl)c1)C2 (racemic) | 12.6 | 2.51 | 39.8 | 
Cc1ccc(C)n1C[C@@]12CNCC[C@]1(c1ccc(Cl)c(Cl)c1)C2 (racemic) | 20 | 2.51 | 20 | 
Cc1cc(C)n(C[C@@]23CNCC[C@]2(c2ccc(Cl)c(Cl)c2)C3)c1 (racemic) | 7.94 | 2 | 20 | 
Clc1ccc([C@]23CCNC[C@@]2(Cn2cncn2)C3)cc1Cl (racemic) | 200 | 3.98 | 100 | 
Cc1nc(C)n(C[C@@]23CNCC[C@]2(c2ccc(Cl)c(Cl)c2)C3)n1 (racemic) | 25.1 | 3.16 | 39.8 | 
CC(C)c1nnnn1C[C@@]12CNCC[C@]1(c1ccc(Cl)c(Cl)c1)C2 (racemic) | 63.1 | 63.1 | 398 | 
CC(C)c1nnn(C[C@@]23CNCC[C@]2(c2ccc(Cl)c(Cl)c2)C3)n1 (racemic) | 25.1 | 0.794 | 398 | 
Cc1cc(C)n(CC23CNCC[C@]2(c2ccc(Cl)c(Cl)c2)C3)n1 (single isomer, unassigned) | 3.16 | 0.2 | 1 | CL (Liver microsomes [4]): 2.4 mL/min/g; Vd [5]: 6.9 L/kg; clearance [6]: 52 mL/min/kg; Fa [7]: 50%; bioavailability [8]: 6%; Kp at 1 h [9]: 0.8; half-life [10]: 138 min; CL (Liver microsomes [11]): 5.5 mL/min/g
Cc1csc(C23CNCC[C@]2(c2ccc(Cl)c(Cl)c2)C3)n1 (single isomer, unassigned; enantiomer 1) | 0.2 | 0.398 | 0.398 | CL (Liver microsomes [4]): 2.6 mL/min/g; IC50 (Cytochrome P450 2D6): > 6 µM; IC50 (Cytochrome P450 3A4): > 6 µM; IC50 (Cytochrome P450 2C19): > 6 µM; IC50 (Cytochrome P450 2C9): > 6 µM; IC50 (Cytochrome P450 1A2): > 6 µM; CL (Liver microsomes [11]): 5.4 mL/min/g
Cc1ccn(CC23CNCC[C@]2(c2ccc(Cl)c(Cl)c2)C3)n1 (single isomer, unassigned; enantiomer 1) | 316 | 20 | 1000 | 
Cc1cc(C)n(CC23CNCC[C@]2(c2ccc(Cl)c(Cl)c2)C3)n1 (single isomer, unassigned; enantiomer 1) | 158 | 15.8 | 501 | 
N#Cc1ccn(CC23CNCC[C@]2(c2ccc(Cl)c(Cl)c2)C3)c1 (single isomer, unassigned; enantiomer 1) | 12.6 | 0.631 | 31.6 | 
Cc1nc(C)n(CC23CNCC[C@]2(c2ccc(Cl)c(Cl)c2)C3)n1 (single isomer, unassigned; enantiomer 1) | 15.8 | 2 | 25.1 | IC50 (Cytochrome P450 2D6): > 25 µM; IC50 (Cytochrome P450 3A4): > 25 µM; hepatic extraction ratio [12]: 0.8; IC50 (Cytochrome P450 2C19): > 25 µM; Vd [5]: 8.1 L/kg; clearance [6]: 63 mL/min/kg; Fa [7]: 94%; IC50 (Cytochrome P450 2C9): > 25 µM; bioavailability [8]: 17%; Kp at 1 h [9]: 0.4; half-life [10]: 102 min; IC50 (Cytochrome P450 1A2): > 25 µM
Cc1ccnn1CC12CNCC[C@]1(c1ccc(Cl)c(Cl)c1)C2 (single isomer, unassigned; enantiomer 2) | 3.16 | 0.794 | 1.58 | CL (Liver microsomes [4]): 2.5 mL/min/g; IC50 (Cytochrome P450 2D6): > 10 µM; IC50 (Cytochrome P450 3A4): > 10 µM; IC50 (Cytochrome P450 2C19): > 10 µM; IC50 (Cytochrome P450 2C9): > 10 µM; IC50 (Cytochrome P450 1A2): > 10 µM; CL (Liver microsomes [11]): 2.6 mL/min/g
Cc1ccn(CC23CNCC[C@]2(c2ccc(Cl)c(Cl)c2)C3)n1 (stereo in doubt) | 15.8 | 0.251 | 3.16 | IC50 (Cytochrome P450 2D6): > 10 µM; IC50 (Cytochrome P450 3A4): > 10 µM; IC50 (Cytochrome P450 2C19): > 10 µM; IC50 (Cytochrome P450 2C9): > 10 µM; IC50 (Cytochrome P450 1A2): > 10 µM
Cc1csc(C23CNCC[C@]2(c2ccc(Cl)c(Cl)c2)C3)n1 (stereo in doubt; 7) | 20 | 15.8 | 31.6 | 
Cc1ccnn1CC12CNCC[C@]1(c1ccc(Cl)c(Cl)c1)C2 (stereo in doubt; 16) | 100 | 20 | 316 | 
Cc1nc(C)n(CC23CNCC[C@]2(c2ccc(Cl)c(Cl)c2)C3)n1 (stereo in doubt; 38) | 200 | 39.8 | 1580 | 
